Our source for the pest or weed control values is patent publication US5240925A (priority 1991, dated 1993).

Molecules are shown by their SMILES.

What all share (assay): whole plant or invertebrate
What all share (format): in vivo

Assay [1] concerns Pseudoperonospora cubensis. The note with it: in Cucumis sativus, 168 h, read-out: percent disease control, CDM.
The next assay has as its system Piricularia oryzae. The note with it: Pyricularia oryzae, 192 h, read-out: percent disease control, RB.
For another assay, the system named is Phytophthora infestans. The note with it: in Solanum lycopersicum, 96 h, read-out: percent disease control, TLB.
Assay [2] relates to Puccinia recondita (f. sp. tritici Races PKB and PLD). The note with it: 240 h, read-out: percent disease control, WLR.
Assay [3] relates to Erysiphe graminis (f. sp. tritici). The following applies: Blumeria graminis, 192 h; read-out: percent disease control, WPM.
In assay [4] the test system is Puccinia graminis (f. sp. tritici Race 15B-2). The following applies: 240 h, read-out: percent disease control, WSR.

As to `N#CC(CC1CCCO1)(Cn1cncn1)c1ccccc1` (centres unmarked) [Example 1, 1-[2-Cyano-2-phenyl-3-(tetrahydrofuran-2-yl)propyl]-1,2,4-triazole], the pest or weed control at 225 g/ha in assay [1] is 10%; with Piricularia oryzae, 100%; with Phytophthora infestans it was 5%; in assay [2], 100%; in assay [3], 100%.
Take `N#CC(CCN1CCOCC1)(Cn1cncn1)c1ccc(Cl)cc1` (centres unmarked) [Example 2, 1-[2-(4-Chlorophenyl)-2-cyano-4-(4-morpholinyl)butyl]-1,2,4-triazole]: the pest or weed control at 300 g/ha worked out at 0% in assay [1]; 0% with Piricularia oryzae; 0% in the assay with Phytophthora infestans; 50% in assay [3]; 0% in assay [4].
On to `CC1CN(CCCC(C#N)(Cn2cncn2)c2ccc(Cl)cc2)CC(C)O1` (centres unmarked) [Example 3, 1-[2-(4-Chlorophenyl)-2-cyano-5-(2,6-dimethyl-4-morpholinyl)pentyl]-1,2,4-triazole], for which the pest or weed control at 300 g/ha in assay [1] worked out at 0%; with Piricularia oryzae, 0%; in the assay with Phytophthora infestans, 0%; in assay [3] it was 0%; in assay [4], 50%.
`CC1CN(CCC(C#N)(Cn2cncn2)c2ccc(Cl)cc2)CC(C)O1` (centres unmarked) [Example 4, 1-[2-(4-Chlorophenyl)-2-cyano-4-(2,6-dimethyl-4-morpholinyl)butyl]-1,2,4-triazole]: the pest or weed control at 300 g/ha in assay [1] was determined as 0%; in the assay with Piricularia oryzae it was 0%; in the assay with Phytophthora infestans, 0%; in assay [3], 0%; in assay [4] it was 100%.
`CC1CN(CCCCC(C#N)(Cn2cncn2)c2ccc(Cl)cc2)CC(C)O1` (centres unmarked) [Example 5, 1-[2-(4-Chlorophenyl)-2-cyano-6-(2,6-dimethyl-4-morpholinyl)hexyl]-1,2,4-triazole]: the pest or weed control at 300 g/ha in assay [1] was determined as 0%; in the assay with Piricularia oryzae it was 0%; in the assay with Phytophthora infestans it was 0%; in assay [3], 0%; in assay [4] it was 80%.
For `CC1CN(CCCCCCCCCCCC(C#N)(Cn2cncn2)c2ccc(Cl)cc2)CC(C)O1` (centres unmarked) [Example 6, 1-[2-(4-Chlorophenyl)-2-cyano-13-(2,6-dimethyl-4-morpholinyl)tridecyl]-1,2,4-triazole], the pest or weed control at 300 g/ha came to 0% in assay [1]; 0% with Piricularia oryzae; 0% with Phytophthora infestans; 0% in assay [3]; 80% in assay [4].
On to `N#CC(Cc1cccnc1)(Cn1cncn1)c1ccc(Cl)cc1` (centres unmarked) [Example 7, 1-[2-(4-Chlorophenyl)-2-cyano-3-(3-pyridyl)propyl]-1,2,4-triazole], for which the pest or weed control at 150 g/ha in the assay with Piricularia oryzae stood at 0%; in the assay with Phytophthora infestans, 0%; in assay [2], 0%; in assay [3] it was 85%.
Take `N#CC(CCc1cccs1)(Cn1cncn1)c1ccc(Cl)cc1` (centres unmarked) [Example 8, 1-[2-(4-Chlorophenyl)-2-cyano-4-(2-thienyl)butyl]-1,2,4-triazole]: the pest or weed control at 150 g/ha in assay [1] was 100%; with Piricularia oryzae, 0%; in the assay on Phytophthora infestans, 80%; in assay [2], 95%; in assay [3] it was 95%; in assay [4] it was 95%.
For the compound `COc1ccccc1C(C#N)(Cc1ccccn1)Cn1cncn1` (centres unmarked) [Example 9, 1-[2-Cyano-2-(2-methoxyphenyl)-3-(2-pyridyl)propyl]-1,2,4-triazole], the pest or weed control at 150 g/ha worked out at 0% in the assay on Piricularia oryzae, 100% in the assay on Phytophthora infestans, 0% in assay [2] and 0% in assay [3].
`N#CC(CCCN1CCCCC1)(Cn1cncn1)c1ccc(Cl)cc1Cl` (centres unmarked) [Example 10, 1-[2-Cyano-2-(2,4-dichlorophenyl)-5-(1-piperidinyl)pentyl]-1,2,4-triazole]: the pest or weed control at 300 g/ha with Piricularia oryzae worked out at 50%; in assay [2] it was 25%; in assay [3], 75%.
For `CN1CCCC(CC(C#N)(Cn2cncn2)c2ccc(Cl)cc2Cl)C1` (centres unmarked) [Example 11, 1-[2-Cyano-2-(2,4-dichlorophenyl)-3-(1-methylpiperidin-3-yl)propyl]-1,2,4-triazole], the pest or weed control at 300 g/ha in assay [1] amounted to 50%; in the assay with Piricularia oryzae, 0%; with Phytophthora infestans, 0%; in assay [2], 25%; in assay [3] it was 95%.
As for `N#CC(Cc1ccco1)(Cn1cncn1)c1ccc(Cl)cc1` (centres unmarked) [Example 12, 1-[2-(4-Chlorophenyl)-2-cyano-3-(2-furyl)propyl]-1,2,4-triazole], the pest or weed control at 150 g/ha in the assay with Phytophthora infestans was found to be 80%; in assay [2], 0%; in assay [3], 100%; in assay [4], 50%.
For `N#CC(Cc1cccs1)(Cn1cncn1)c1ccc(Cl)cc1` (centres unmarked) [Example 13, 1-[2-(4-Chlorophenyl)-2-cyano-3-(2-thienyl)propyl]-1,2,4-triazole], the pest or weed control at 300 g/ha (in assay [1]; with Piricularia oryzae) was 0% each time. Also, the pest or weed control at 150 g/ha stood at 0% with Phytophthora infestans, 0% in assay [2], 100% in assay [3] and 100% in assay [4].
In the case of `COc1ccccc1C(C#N)(CC1CCCCO1)Cn1cncn1` (centres unmarked) [Example 14, 1-[2-Cyano-2-(2-methoxyphenyl)-3-(tetrahydropyran-2-yl)propyl]-1,2,4-triazole], the pest or weed control at 300 g/ha is 0% in assay [1]; 0% in the assay with Piricularia oryzae; 0% with Phytophthora infestans; 0% in assay [2]; 99% in assay [3].
Regarding `N#CC(CCc1ccccn1)(Cn1cncn1)c1ccccc1` (centres unmarked) [Example 15, 1-[2-Cyano-2-phenyl-4-(2-pyridyl)butyl]-1,2,4-triazole], the pest or weed control at 300 g/ha in assay [1] came out at 0%; in the assay on Phytophthora infestans, 85%; in assay [2], 0%; in assay [3], 85%.
